Test: xn = mol fraction of the nth substance listed
Details: Liquid, Vibrating tube method

CCCCCCCCCCCC [dodecane] + CCCCCCCCCC
Details | mass density [kg/m3]
342.94 K, 80000 kPa, x2 = 0.2297 | 765
342.94 K, 80000 kPa, x2 = 0.6433 | 758
342.94 K, 100000 kPa, x2 = 0.2297 | 774
342.94 K, 100000 kPa, x2 = 0.6433 | 768
342.95 K, 100 kPa, x2 = 0.7841 | 698
342.95 K, 1000 kPa, x2 = 0.7841 | 699
342.96 K, 5000 kPa, x2 = 0.7841 | 703
342.97 K, 10000 kPa, x2 = 0.7841 | 708
342.97 K, 20000 kPa, x2 = 0.7841 | 717
342.98 K, 30000 kPa, x2 = 0.7841 | 724
342.98 K, 40000 kPa, x2 = 0.7841 | 732
342.99 K, 60000 kPa, x2 = 0.7841 | 744
343 K, 80000 kPa, x2 = 0.7841 | 756
343 K, 99990 kPa, x2 = 0.7841 | 766
352.58 K, 100 kPa, x2 = 0 | 707
352.58 K, 1000 kPa, x2 = 0 | 708
352.58 K, 5000 kPa, x2 = 0 | 712
352.58 K, 10000 kPa, x2 = 0 | 716
352.58 K, 20000 kPa, x2 = 0 | 725
352.58 K, 30000 kPa, x2 = 0 | 733
352.58 K, 40000 kPa, x2 = 0 | 740
352.58 K, 50000 kPa, x2 = 0 | 747
352.58 K, 60000 kPa, x2 = 0 | 753
352.58 K, 70000 kPa, x2 = 0 | 759
352.58 K, 80000 kPa, x2 = 0 | 764
352.58 K, 90000 kPa, x2 = 0 | 769
352.58 K, 100000 kPa, x2 = 0 | 774
352.73 K, 100 kPa, x2 = 0.2297 | 702
352.74 K, 1000 kPa, x2 = 0.2297 | 703
352.74 K, 5000 kPa, x2 = 0.2297 | 707
352.75 K, 10000 kPa, x2 = 0.2297 | 712
352.75 K, 20000 kPa, x2 = 0.2297 | 721
352.75 K, 30000 kPa, x2 = 0.2297 | 729
352.75 K, 40000 kPa, x2 = 0.2297 | 736
352.76 K, 60000 kPa, x2 = 0.2297 | 749
352.76 K, 80000 kPa, x2 = 0.2297 | 760
352.76 K, 100000 kPa, x2 = 0.2297 | 770
352.78 K, 100 kPa, x2 = 0.6433 | 694
352.78 K, 1000 kPa, x2 = 0.6433 | 695
352.78 K, 5000 kPa, x2 = 0.6433 | 699
352.78 K, 10000 kPa, x2 = 0.6433 | 704
352.78 K, 20000 kPa, x2 = 0.6433 | 713
352.78 K, 30000 kPa, x2 = 0.6433 | 721
352.78 K, 40000 kPa, x2 = 0.6433 | 729
352.79 K, 5000 kPa, x2 = 0.4436 | 703
352.79 K, 60000 kPa, x2 = 0.6433 | 742
352.79 K, 79990 kPa, x2 = 0.6433 | 754
352.79 K, 100000 kPa, x2 = 0.6433 | 764
352.8 K, 1000 kPa, x2 = 0.4436 | 699
352.8 K, 10000 kPa, x2 = 0.4436 | 708
352.8 K, 20000 kPa, x2 = 0.4436 | 717
352.81 K, 100 kPa, x2 = 0.4436 | 698
352.81 K, 1000 kPa, x2 = 0.7841 | 692
352.81 K, 30000 kPa, x2 = 0.4436 | 725
352.81 K, 40000 kPa, x2 = 0.4436 | 733
352.81 K, 60000 kPa, x2 = 0.4436 | 746
352.81 K, 99990 kPa, x2 = 0.4436 | 767
352.82 K, 100 kPa, x2 = 0.7841 | 691
352.82 K, 80000 kPa, x2 = 0.4436 | 757
352.83 K, 5000 kPa, x2 = 0.7841 | 696
352.84 K, 10000 kPa, x2 = 0.7841 | 701
352.84 K, 20000 kPa, x2 = 0.7841 | 711
352.85 K, 30000 kPa, x2 = 0.7841 | 719
352.85 K, 40000 kPa, x2 = 0.7841 | 726
352.85 K, 60000 kPa, x2 = 0.7841 | 740
352.85 K, 80000 kPa, x2 = 0.7841 | 751
352.85 K, 100000 kPa, x2 = 0.7841 | 762
362.48 K, 5000 kPa, x2 = 0 | 704
362.48 K, 10000 kPa, x2 = 0 | 709
362.48 K, 20000 kPa, x2 = 0 | 718
362.48 K, 30000 kPa, x2 = 0 | 726
362.48 K, 50000 kPa, x2 = 0 | 741
362.48 K, 80000 kPa, x2 = 0 | 759
362.48 K, 90000 kPa, x2 = 0 | 764
362.49 K, 100 kPa, x2 = 0 | 699
362.49 K, 1000 kPa, x2 = 0 | 700
362.49 K, 40000 kPa, x2 = 0 | 734
362.49 K, 60000 kPa, x2 = 0 | 747
362.49 K, 70000 kPa, x2 = 0 | 753
362.49 K, 100000 kPa, x2 = 0 | 769
362.57 K, 100 kPa, x2 = 0.2297 | 695
362.57 K, 1000 kPa, x2 = 0.2297 | 696
362.58 K, 5000 kPa, x2 = 0.2297 | 700
362.58 K, 10000 kPa, x2 = 0.2297 | 705
362.58 K, 20000 kPa, x2 = 0.2297 | 714
362.58 K, 30000 kPa, x2 = 0.2297 | 722
362.59 K, 40000 kPa, x2 = 0.2297 | 730
362.59 K, 60000 kPa, x2 = 0.2297 | 743
362.59 K, 80000 kPa, x2 = 0.2297 | 755
362.59 K, 100000 kPa, x2 = 0.2297 | 765
362.61 K, 100 kPa, x2 = 0.4436 | 690
362.61 K, 1000 kPa, x2 = 0.4436 | 691
362.62 K, 100 kPa, x2 = 0.6433 | 686
362.62 K, 1000 kPa, x2 = 0.6433 | 687
362.62 K, 5000 kPa, x2 = 0.4436 | 696
362.62 K, 5000 kPa, x2 = 0.6433 | 691
362.62 K, 10000 kPa, x2 = 0.4436 | 701
362.62 K, 10000 kPa, x2 = 0.6433 | 697
362.62 K, 20000 kPa, x2 = 0.4436 | 710
362.62 K, 30000 kPa, x2 = 0.4436 | 719
362.62 K, 40000 kPa, x2 = 0.4436 | 726
362.62 K, 60000 kPa, x2 = 0.4436 | 740
362.62 K, 80000 kPa, x2 = 0.4436 | 752
362.63 K, 20000 kPa, x2 = 0.6433 | 706
362.63 K, 30000 kPa, x2 = 0.6433 | 715
362.63 K, 40000 kPa, x2 = 0.6433 | 722
362.63 K, 60000 kPa, x2 = 0.6433 | 736
362.63 K, 80000 kPa, x2 = 0.6433 | 748
362.63 K, 99990 kPa, x2 = 0.6433 | 758
362.63 K, 100000 kPa, x2 = 0.4436 | 762
362.64 K, 100 kPa, x2 = 0.7841 | 682
362.64 K, 1000 kPa, x2 = 0.7841 | 683
362.65 K, 5000 kPa, x2 = 0.7841 | 688
362.65 K, 10000 kPa, x2 = 0.7841 | 693
362.66 K, 20000 kPa, x2 = 0.7841 | 703
362.66 K, 30000 kPa, x2 = 0.7841 | 712
362.66 K, 40000 kPa, x2 = 0.7841 | 719
362.66 K, 60000 kPa, x2 = 0.7841 | 733
362.66 K, 80000 kPa, x2 = 0.7841 | 745
362.66 K, 100010 kPa, x2 = 0.7841 | 756

Source: the NIST ThermoML archive (doi:10.1016/j.fluid.2017.12.010)
